From PubChem BioAssay (NCI)
Several values for one entry are separate records, joined by “and”; a condition that tells them apart may be missing. Equal values may be shown once.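 Grown in 96-well plates, cells were treated for 48 hours with each compound at five concentrations. Insufficient inhibition: endpoint recorded as highest concentration tested. Here, GI50 denotes the concentration required for 50% inhibition of growth. TGI: total growth inhibition.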

Experiments:
Experiment in all cases: DTP human tumour cell line panel, 48 h
NCI-H23 lung = test system: NCI-H23 lung
RXF 393 renal = test system: RXF 393 renal
RPMI-8226 leukemia = test system: RPMI-8226 leukemia
OVCAR-8 ovarian = test system: OVCAR-8 ovarian
HT29 colon = test system: HT29 colon
OVCAR-4 ovarian = test system: OVCAR-4 ovarian
MCF7 breast = test system: MCF7 breast
SR leukemia = test system: SR leukemia
UO-31 renal = test system: UO-31 renal
SF-539 CNS = test system: SF-539 CNS

Row | Compound | GI50 (NCI-H23 lung) | TGI (NCI-H23 lung) | GI50 (RXF 393 renal) | TGI (RXF 393 renal) | GI50 (RPMI-8226 leukemia) | TGI (RPMI-8226 leukemia) | GI50 (OVCAR-8 ovarian) | TGI (OVCAR-8 ovarian) | GI50 (HT29 colon) | TGI (HT29 colon) | GI50 (OVCAR-4 ovarian) | TGI (OVCAR-4 ovarian) | GI50 (MCF7 breast) | TGI (MCF7 breast) | GI50 (SR leukemia) | TGI (SR leukemia) | GI50 (UO-31 renal) | TGI (UO-31 renal) | GI50 (SF-539 CNS) | TGI (SF-539 CNS)
1 | CS(=O)(=O)N1CCN(Cc2cc3nc(-c4cccc5[nH]ncc45)nc(N4CCOCC4)c3s2)CC1 | 1.37 µM and 0.603 µM | > 100 µM | 0.209 µM and 0.165 µM | 1.54 µM and 1.03 µM | 2 µM and 1.94 µM | > 22.2 µM | 0.789 µM and 0.594 µM | > 100 µM | 0.284 µM and 0.101 µM | > 100 µM | 2.77 µM and 0.894 µM | > 100 µM | 0.0766 µM and 0.083 µM | > 100 µM | 2.46 µM and 2.02 µM | > 100 µM | 0.174 µM and 0.105 µM | > 4.03 µM | 0.444 µM and 0.268 µM | 
2 | C=C1C(=O)O[C@H]2[C@H]1CC/C(C=Nc1ccc(C(F)(F)F)cc1N)=C\CC[C@@]1(C)O[C@@H]21 | 10.7 µM | 25.7 µM | 2.87 µM | 9.22 µM | 3.24 µM | 10.1 µM | 4.29 µM | 15.9 µM | 3.65 µM | 8.6 µM | 4.44 µM | 20.6 µM | 3.06 µM | 16 µM | 2.66 µM | 10.7 µM | 2.87 µM | 19.3 µM | 3.94 µM | 15.4 µM
3 | NC(=O)c1nnn(Cc2cc(Cl)c(C(=O)c3ccc(Cl)cc3)c(Cl)c2)c1N | > 9.09 µM | > 9.09 µM and 43 µM | > 9.09 µM | > 9.09 µM and 39.3 µM | > 9.09 µM | > 70.6 µM | > 9.09 µM | > 9.09 µM and 40.8 µM | > 9.09 µM | > 9.09 µM and 42 µM | > 9.09 µM | > 9.09 µM and 39.1 µM |  | 32.9 µM | 21.7 µM | > 100 µM | > 9.09 µM | > 9.09 µM and 42.1 µM | > 9.09 µM | > 9.09 µM and 46.5 µM
4 | Fc1ccc(-c2ncn(C3CCNCC3)c2-c2ccnc(Oc3ccccc3)n2)cc1 | > 25 µM | > 25 µM | 11.7 µM | > 25 µM | > 23.9 µM | > 25 µM | > 25 µM | > 25 µM | 8.3 µM | > 25 µM | > 25 µM | > 25 µM | 9.3 µM | > 25 µM | 9.17 µM | > 20.1 µM | 7.72 µM | > 25 µM | > 25 µM | > 25 µM
5 | CCOC(=O)C1=C(N)Oc2c(sc3c(C)cccc23)C1c1ccc(Cl)cc1 (configuration not stated) | 2.5 µM | 10.5 µM | 1.45 µM | 4.47 µM | 3.26 µM | 13.1 µM | 4.24 µM | 20.7 µM | 3.16 µM | 11.8 µM | 6.92 µM | 21 µM | 0.655 µM | 10.9 µM | 1.49 µM | 18 µM | 3.03 µM | 16.7 µM | 1.8 µM | 5.57 µM
6 | COC(=O)NNc1c([N+](=O)[O-])cnn(-c2ccccc2)c1=O |  | 5.82 µM |  | 10.1 µM |  | 19.2 µM |  | 3.75 µM |  | 3.81 µM |  | 3.85 µM |  | 18 µM |  | 0.981 µM |  | 15.9 µM |  | 8.22 µM
7 | O=C(O)CNC(=O)c1ccccc1O |  | > 100 µM |  | > 100 µM |  | > 100 µM |  | > 100 µM |  | > 100 µM |  | > 100 µM |  | > 100 µM |  | > 100 µM |  | > 100 µM |  | > 100 µM
8 | COc1ccc(-c2cn(-c3ccc(Cl)cc3)c(=S)[nH]2)cc1OC | > 100 µM | > 100 µM | 2.98 µM | > 100 µM | 4.43 µM | 92.3 µM | 46.7 µM | > 100 µM | 3.89 µM | > 100 µM | 20.8 µM | > 100 µM | 4.77 µM | > 100 µM | 2.91 µM | > 100 µM | 39.6 µM | > 100 µM | 29.9 µM | > 100 µM
9 | Nc1ncnc2c1c(-c1cccc(OCc3ccccc3)c1)cn2C1CC(CN2CCCC2)C1 (configuration not stated) | 2.91 µM | 16 µM | 1.21 µM | 2.68 µM | 1.94 µM | 5.4 µM | 4.74 µM | 18 µM | 0.117 µM | 1.63 µM | 1.86 µM | 6.59 µM | 0.141 µM | 2 µM | 2.4 µM | 11.2 µM | 1.28 µM | 3.61 µM | 1.6 µM | 3.02 µM
10 | CCOC(=O)c1ccc2c(c1)[n+](=O)c(C(=O)c1ccc3ccccc3c1)c(C(F)(F)F)n2[O-] | 0.496 µM | 1.79 µM | 1.73 µM | 3.26 µM | 1.1 µM | 3.63 µM | 1.28 µM | 2.7 µM | 1.08 µM | 2.27 µM | 0.261 µM | 0.848 µM | 0.901 µM | 2.42 µM | 0.331 µM | 1.6 µM | 1.3 µM | 2.57 µM | 1.56 µM | 2.9 µM
11 | CSC(=S)N/N=C/c1ccccc1 |  | > 100 µM |  | 76.9 µM |  | > 100 µM |  | > 100 µM |  | > 100 µM |  | 98.5 µM |  | > 100 µM |  | > 100 µM |  | > 100 µM |  | > 100 µM
12 | Fc1ccc(CNc2c3ccccc3nc3ccccc23)cc1 | 2.36 µM | 8.57 µM | 2.07 µM | 5.4 µM | 2.03 µM | 5.79 µM | 2.64 µM | 12.5 µM | 2.27 µM | 9.54 µM | 2.05 µM | 7.34 µM | 1.79 µM | 4.97 µM | 2.2 µM | 7.75 µM | 1.2 µM | 4.14 µM | 2.22 µM | 5.7 µM
13 | O=C(CCc1nnc(-c2c(Cl)cccc2Cl)o1)c1nc2ccccc2[nH]1 | 3.23 µM | 63.2 µM | 4.3 µM | 49.7 µM | 3.61 µM | 23.3 µM | 9.26 µM | > 100 µM | 3.77 µM | 55.1 µM | 5.93 µM | > 100 µM | 4.57 µM | > 100 µM | 2.63 µM | 15.2 µM | 6.71 µM | 32.9 µM | 10.5 µM | 39.6 µM
14 | Cc1ccc(Cl)cc1Nc1nc(C(F)(F)F)ccc1C(=O)N/N=C/c1c(Cl)cccc1Cl | 1.55 µM | 7.39 µM | 1.23 µM | 3.48 µM | 0.32 µM | 1.79 µM | 0.85 µM | > 50.3 µM | 0.791 µM | > 100 µM | 0.289 µM |  | 1.74 µM | > 38.1 µM | 0.251 µM | 3.88 µM | 1.53 µM | 5.13 µM | 1.62 µM | 5.05 µM
15 | O=S(=O)(O)c1ccc(Cl)cc1.[Cd] | 23.2 µM | 82.3 µM | 27.3 µM | 79.3 µM | 32.1 µM | > 100 µM | > 100 µM | > 100 µM | > 100 µM | > 100 µM | 51.9 µM | > 100 µM | 34.6 µM | > 100 µM | 22.8 µM | > 100 µM | > 100 µM | > 100 µM | 13.7 µM | 32.4 µM
16 | CN(CCCCCl)P(=O)(OCc1ccc([N+](=O)[O-])o1)C(F)(F)c1ccc(CC(=O)N[C@@H](CC(=O)O)C(=O)N[C@@H](Cc2ccc(C(F)(F)P(=O)(OCc3ccc([N+](=O)[O-])o3)N(C)CCCCCl)cc2)C(N)=O)cc1 (some centres not stated) | 51.7 µM | > 100 µM | > 100 µM | > 100 µM | 25.5 µM | 71.9 µM | > 100 µM | > 100 µM | 60.4 µM | > 100 µM | 39.1 µM | > 100 µM | 32.8 µM | > 100 µM | 22.9 µM | 49.9 µM | > 100 µM | > 100 µM | 31 µM | 99.8 µM
17 | O=C(O)c1cc(N/C=C2\C(=O)c3ccccc3OC2O)ccc1O (configuration not stated) | 20.4 µg/mL | 59.6 µg/mL | 18.5 µg/mL | 40.1 µg/mL | 2.24 µg/mL | 7.82 µg/mL | 27.4 µg/mL | > 150 µg/mL | 28.8 µg/mL | 71.6 µg/mL | 29 µg/mL | > 150 µg/mL | 24.1 µg/mL | 115 µg/mL | 4.77 µg/mL | 36.9 µg/mL | 10.1 µg/mL | 46.2 µg/mL | 16.7 µg/mL | 43.9 µg/mL
18 | Nc1ccccc1/C=N\Nc1ccccc1 | > 100 µM | > 100 µM | > 100 µM | > 100 µM | > 100 µM | > 100 µM | > 100 µM | > 100 µM | > 100 µM | > 100 µM | 3.91 µM | > 100 µM | 8.92 µM | > 100 µM | 26.6 µM | > 100 µM | 2.43 µM | > 100 µM | 1.27 µM | 7.04 µM
19 | CC1(C)CC(=O)C2=C(C1)NC(SSC1=C(C#N)C(c3ccc(Br)cc3)C3=C(CC(C)(C)CC3=O)N1)=C(C#N)C2c1ccc(Br)cc1 (configuration not stated) | > 150 µg/mL | > 100 µM and 150 µg/mL | 41.6 µg/mL | > 100 µM and 123 µg/mL | 30.6 µg/mL | > 100 µM and 79.3 µg/mL | 48.6 µg/mL | > 100 µM and 150 µg/mL | > 150 µg/mL | > 100 µM and 150 µg/mL | 34.4 µg/mL | > 100 µM and 84.8 µg/mL | > 150 µg/mL | 150 µg/mL | 22.8 µg/mL | > 100 µM and 66.2 µg/mL | 76.3 µg/mL | > 100 µM and 150 µg/mL | > 150 µg/mL | > 100 µM and 150 µg/mL
